Patent publication US11828759B2, “Method of diagnosis” (Peter MacCallum Cancer Institute, priority 2016, dated 2023)
“Also recorded” adds a separate entry of the source.

B1: recombinant stefin A: recombinant stefin A (R&D Systems, 1407-PI-050), an 11 kDa cysteine protease inhibitor (protein, UniProt P01040 1-98, looked up)
Cystatin-A: MIPGGLSEAKPATPEIQEIVDKVKPQLEEKTNETYGKLEAVQYKTQVVAGTNYYIKVRAGDNKYMHLKVFKSLPGQNEDLVLTGYQVDKNKDDELTGF

Key:
MDA-MB-231 cells = test: 3D culture / co-culture invasion model on reconstituted basement membrane; format: cell-based, human; details: for invasive protrusions / invasive outgrowths of co-cultures: MDA-MB-231 co-cultured 1:1 with N1ME stefin A low myoepithelial cells, 50 μM inhibitor in media, refreshed every 48 hours, vs DMSO control, n=3
Experimental: All 3D cultures were performed using CULTREX® (Trevigen, Gaithersburg, MD, 3433-005-01) similar to previously described (Mullins et al.). Briefly, 8 well chambers (THERMOFISHER, NUN155409) were coated with 100% CULTREX and allowed to solidify at 37° C. Cells (pre-mixed at 1:1 ratio) were seeded on top of the solidified CULTREX and allowed to adhere for 60-90 minutes before 2% CULTREX in MEGM media (LONZA) was overlaid. Media was changed every 4 days unless otherwise stated. On day 7, Z-stacks were captured on a ZEISS LSM 780 inverted confocal microscope, and 3D-reconstructions were created using IMARIS.
Bright-field images at 40× magnification were taken on the Olympus BX41 using a DP25 camera and DP2-BSW software (Olympus, TYO, Japan) to observe overall multicellular morphology. Nuclei were labelled with cell permeable Hoechst (Thermo Scientific, MA, USA, 33342) and rinsed with PBS. Confocal microscopy was performed on a Zeiss LSM 780 inverted confocal microscope (Zeiss, Thornwood, NY, USA) with a 10×/0.45 air-objective, with 37° C., 5% CO2 incubation. Z-stacks were captured using ZEN software (Zeiss) and 3D-reconstructions were created using IMARIS (Bitplane, Switzerland) including volume rendering.
Images of 3D cultures were processed and analyzed using the Fiji distribution of IMAGEJ (Schindelin et al. 2012) as follows. Extraction and mask generation of the individual cultures was carried out by applying an edge filter followed by an unsharp mask (radius=6, mask=0.8). The resulting image was blurred using a Gaussian filter (sigma=4) to make subsequent thresholding more accurate. A threshold was applied, manually adjusted if required and used to create a binary mask. The resulting mask was filtered by size to remove small, erroneous, debris. Each individual 3D cultures mask was then measured for its perimeter and convex hull lengths. […]
All statistics were calculated and graphed using PRISM version 7. […] Variation in mean convex hull to perimeter ratio was determined using one-way ANOVA followed by Tukey's post hoc analysis.

DSG3 = test: Western blot of DSG3 in N1ME cells and conditioned media after CA-074 treatment; format: cell-based, human; details: CA-074 for 72 hours vs DMSO
Experimental: (§1) Cells were lysed by freezing in citrate buffer (50 mM citrate, pH 5.5, 0.5% CHAPS, 0.1% TRITON™ X-100, 4 mM DTT). For cathepsin B activity gels, activity-based probes [GB123 (1 μM) (29) or BMV109 (0.1 μM) (Verdoes et al. 2013)] were added to lysates from a 100×stock, and proteins were incubated for 30 minutes at 37° C. The addition of 4×sample buffer (40% glycerol, 200 mM Tris-HCl pH 6.8, 0.04% bromophenol blue, 5% beta-mercaptoethanol) stopped the reaction with boiling for 10 minutes. Proteins (30-50 μg) were separated by SDS-PAGE (on either 15% acrylamide or gradient 4-20% gels, precast from BIO-RAD, CA, USA) and visualized using a TYPHOON flatbed laser scanner (GE Healthcare, UK) for Cy5 fluorescence. For immunoblotting, proteins were transferred to nitrocellulose membranes and subjected to standard Western blotting protocols. Membranes were incubated with 1 μg/ml primary antibodies against stefin A, cathepsin B (R&D Systems, Minneapolis, USA, AF965), DSG3 (Life Technologies, 326300), E-cadherin (Novus, NB-110-56937), or 1:10,000 dilutions of β-actin (Sigma-Aldrich, MO, USA, A22280) or GAPDH (Cell Signaling Technology, MA, USA, 8884). Signal was detected using ECL (GE Healthcare), G:Box GelDoc (Syngene, CBG, UK) and GeneSys (Syngene) software with automatic exposure.
(§2) To collect secreted proteins, cells were incubated in serum free media for 24 hours. […]

E-cadherin = test: Western blot of E-cadherin in N1ME cells and supernatant after CA-074 treatment; format: cell-based, human; details: N1ME stefin A wild type or stefin A low cells; CA-074 for 72 hours
Experimental: as §1, §2

[1] = test system: MMTV-PyMT mice (spontaneous mammary gland tumors); test: MMTV-PyMT mouse model of DCIS-to-invasive transition; format: in vivo; details: 50 mg/kg intraperitoneal daily, day 30-49
Experimental: Mouse investigations were performed after approval by the La Trobe University Animal Ethics Committee. Bl/6 MMTV-PyMT positive female mice were injected (intraperitoneal, 200 μl/20 g mouse) daily with 50 mg/kg CA-074 or vehicle (5% DMSO/saline) from day 30-49. On day 50, mice were culled and second, third and fourth mammary glands were resected and sent for histology. Mouse tissues were fixed in 10% buffered formalin for 6 hours and paraffin-embedded. Sections at three different depths throughout the mammary gland were taken and were stained with hematoxylin and eosin according to standard protocols. Alternatively, sections were stained with 1 μg/ml anti-α-smooth muscle actin (ABCAM, ab66133) or with isotype control antibodies, as above. Sections were scored by a pathologist blinded to treatment groups (Sandra O'Toole) for the presence of invasive regions of cancer growth within the mammary gland. Experiment included 8 mice per group.

cathepsin B = target: T1, cathepsin B (Homo sapiens, UniProt P07858); test: Stefin A in vitro inhibition of cathepsin B in N1ME cell lysate (BMV109 activity based probe); format: biochemical; details: increasing concentrations of recombinant stefin A, 15 min at 37 C
T1 construct: SDS-PAGE gel electrophoresis of N1ME cell lysate incubated with increasing concentrations of recombinant stefin A; endogenous in cells; host or cells: N1ME (hTERT-immortalized human myoepithelial cells), lysed in citrate buffer pH 5.5
Experimental: as §1, with “exposure. […]” for “exposure.”

cathepsin L = target: T2, cathepsin L (Homo sapiens, UniProt P07711); test: Stefin A in vitro inhibition of cathepsin L in N1ME cell lysate (BMV109 activity based probe); format: biochemical; details: increasing concentrations of recombinant stefin A, 15 min at 37 C
T2 construct: SDS-PAGE gel electrophoresis of N1ME cell lysate incubated with increasing concentrations of recombinant stefin A; endogenous in cells; host or cells: N1ME (hTERT-immortalized human myoepithelial cells), lysed in citrate buffer pH 5.5
T2 sequence (P07711 114-333): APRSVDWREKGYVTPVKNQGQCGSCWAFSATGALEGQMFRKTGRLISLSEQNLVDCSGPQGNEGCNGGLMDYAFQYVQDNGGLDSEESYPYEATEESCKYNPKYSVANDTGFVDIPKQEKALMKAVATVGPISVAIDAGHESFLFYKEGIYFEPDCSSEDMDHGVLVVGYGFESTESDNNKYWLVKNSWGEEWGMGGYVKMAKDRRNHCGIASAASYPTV

Molecule	invasive protrusions / invasive outgrowths of co-cultures (MDA-MB-231 cells)	DSG3 protein in whole cell lysates (DSG3; N1ME stefin A low cells)	cleaved extracellular domain of DSG3 (ecto-DSG3) in conditioned media (DSG3; N1ME wild type and stefin A low cells)	E-cadherin expression in whole cell lysates or ecto-protein (E-cadherin)	mice progressed to IDC at experimental endpoint ([1]; glands scored at day 50, 8 mice per group, control 6/8)	number of invasive regions throughout the mammary gland ([1]; vs DMSO control)	invasion of MDA-MB-231 cells cultured alone (MDA-MB-231 cells; MDA-MB-231 alone, without myoepithelial cells)	cathepsin B activity (cathepsin B)	cathepsin L activity (cathepsin L)
CCCNC(=O)[C@H]1O[C@@H]1C(=O)N[C@H](C(=O)N1CCC[C@H]1C(=O)O)[C@@H](C)CC [CA-074]	rescued the phenotype caused by stefin A loss	rescued in whole cell lysates; also recorded: an increase in protein was noted for DSG3	decreased the cleaved extracellular domain of DSG3	did not affect E-cadherin expression	2/8	decreased the number of invasive regions			
JPM-OEt	reverted the invasive protrusions in the co-cultures, however not to the same extent as CA-074, and was not statistically significant								
B1							did not inhibit invasion	can be inhibited	can be inhibited
